Data from patent publication US8574563B2 (Bristol-Myers Squibb Company, priority 2006, dated 2013).

Tested on: HCV 1b-377-neo replicon cells
Assay: HCV replicon assay, HCV 1b-377-neo replicon cells (1b FRET)
Format: cell-based, Hepatitis C virus genotype 1b
Details: Hepatitis C virus, HCV 1b-377-neo replicon cells; HCV 1b genotype; read-out: EC50 range against HCV 1b (Table 2, Range)
How it was run: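 FRET-based replicon assay in HCV 1b-377-neo cells, including a comparison line carrying the NS5A Y2065H mutation that confers resistance to a reference compound.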

SMILES	EC50 [nM]
CC(C)[C@@H](O)C(=O)N1[C@@H](C)CC[C@H]1c1nc(-c2ccc(-c3ccc(-c4c[nH]c([C@@H]5CC[C@H](C)N5C(=O)[C@H](O)C(C)C)n4)cc3)cc2)c[nH]1 [Example M160, (2R,2′R)-1,1′-(4,4′-biphenyldiylbis(1H-imidazole-4,2-diyl((2S,5S)-5-methyl-2,1-pyrrolidinediyl)))bis(3-methyl-1-oxo-2-butanol)]	1 to 99
CC(C)[C@H](O)C(=O)N1[C@@H](C)CC[C@H]1c1nc(-c2ccc(-c3ccc(-c4c[nH]c([C@@H]5CC[C@H](C)N5C(=O)[C@@H](O)C(C)C)n4)cc3)cc2)c[nH]1 [Example M161, (2S,2′S)-1,1′-(4,4′-biphenyldiylbis(1H-imidazole-4,2-diyl((2S,5S)-5-methyl-2,1-pyrrolidinediyl)))bis(3-methyl-1-oxo-2-butanol)]	1 to 99
COC(=O)N[C@@H](C)C(=O)N1C[C@H](F)C[C@H]1c1ncc(-c2ccc(-c3ccc(-c4cnc([C@@H]5C[C@@H](F)CN5C(=O)[C@H](C)NC(=O)OC)[nH]4)cc3)cc2)[nH]1 [JG-3, methyl ((1S)-2-((2S,4R)-4-fluoro-2-(5-(4′-(2-((2S,4R)-4-fluoro-1-(N-(methoxycarbonyl)-L-alanyl)-2-pyrrolidinyl)-1H-imidazol-5-yl)-4-biphenylyl)-1H-imidazol-2-yl)-1-pyrrolidinyl)-1-methyl-2-oxoethyl)carbamate]	0.001 to 0.999
COC(=O)N[C@@H](C)C(=O)N1C[C@H](O)C[C@H]1c1ncc(-c2ccc(-c3ccc(-c4cnc([C@@H]5C[C@@H](O)CN5C(=O)[C@H](C)NC(=O)OC)[nH]4)cc3)cc2)[nH]1 [JG-4]	1 to 99
COC(=O)N[C@H](C(=O)N1C[C@H](O)C[C@H]1c1ncc(-c2ccc(-c3ccc(-c4cnc([C@@H]5C[C@@H](O)CN5C(=O)[C@@H](NC(=O)OC)C(C)C)[nH]4)cc3)cc2)[nH]1)C(C)C [JG-5, methyl ((1S)-1-(((2S,4R)-4-hydroxy-2-(5-(4′-(2-((2S,4R)-4-hydroxy-1-((2S)-2-((methoxycarbonyl)amino)-3-methylbutanoyl)-2-pyrrolidinyl)-1H-imidazol-5-yl)-4-biphenylyl)-1H-imidazol-2-yl)-1-pyrrolidinyl)carbonyl)-2-methylpropyl)carbamate]	0.001 to 0.999
COC(=O)N[C@H](C(=O)N1C[C@H](O)C[C@H]1c1ncc(-c2ccc(-c3ccc(-c4cnc([C@@H]5C[C@@H](O)CN5C(=O)[C@@H](NC(=O)OC)C5CC5)[nH]4)cc3)cc2)[nH]1)C1CC1 [JG-6, dimethyl (4,4′-biphenyldiylbis(1H-imidazole-5,2-diyl((2S,4R)-4-hydroxy-2,1-pyrrolidinediyl)((1S)-1-cyclopropyl-2-oxo-2,1-ethanediyl)))biscarbamate]	1 to 99
CCN(CC)[C@@H](C(=O)N1C[C@@H](O)C[C@H]1c1ncc(-c2ccc(-c3ccc(-c4cnc([C@@H]5C[C@H](O)CN5C(=O)[C@@H](c5ccccc5)N(CC)CC)[nH]4)cc3)cc2)[nH]1)c1ccccc1 [JG-7, (3S,5S,3′S,5′S)-5,5′-(4,4′-biphenyldiylbis(1H-imidazole-5,2-diyl))bis(1-((2R)-2-(diethylamino)-2-phenylacetyl)-3-pyrrolidinol)]	0.001 to 0.999
COC(=O)N[C@@H](C)C(=O)N1C[C@@H](O)C[C@H]1c1ncc(-c2ccc(-c3ccc(-c4cnc([C@@H]5C[C@H](O)CN5C(=O)[C@H](C)NC(=O)OC)[nH]4)cc3)cc2)[nH]1 [JG-8, methyl ((1S)-2-((2S,4S)-4-hydroxy-2-(5-(4′-(2-((2S,4S)-4-hydroxy-1-(N-(methoxycarbonyl)-L-alanyl)-2-pyrrolidinyl)-1H-imidazol-5-yl)-4-biphenylyl)-1H-imidazol-2-yl)-1-pyrrolidinyl)-1-methyl-2-oxoethyl)carbamate]	0.001 to 0.999
